Measurements taken from ChEMBL document CHEMBL1133455, “Synthesis of novel 5-substituted 3-amino-3,4-dihydro-2H-1-benzopyran derivatives and their interactions with the 5-HT1A receptor” (J Med Chem, 2000).
Calls of active or inactive are those of the source. The calls are words filed in the database; no cut-off is given here.

How the values were obtained:
[1] = biological target: T1, 5-hydroxytryptamine receptor 1A (Rattus norvegicus, UniProt P19327); assay: In vitro binding affinity at 5-HT1A receptors assayed by displacement of [3H]8-OH-DPAT from 5-hydroxytryptamine 1A receptor in rat hippocampal membranes; format: cell membranes, Hippocampus, Membrane
T1 sequence (P19327 whole entry): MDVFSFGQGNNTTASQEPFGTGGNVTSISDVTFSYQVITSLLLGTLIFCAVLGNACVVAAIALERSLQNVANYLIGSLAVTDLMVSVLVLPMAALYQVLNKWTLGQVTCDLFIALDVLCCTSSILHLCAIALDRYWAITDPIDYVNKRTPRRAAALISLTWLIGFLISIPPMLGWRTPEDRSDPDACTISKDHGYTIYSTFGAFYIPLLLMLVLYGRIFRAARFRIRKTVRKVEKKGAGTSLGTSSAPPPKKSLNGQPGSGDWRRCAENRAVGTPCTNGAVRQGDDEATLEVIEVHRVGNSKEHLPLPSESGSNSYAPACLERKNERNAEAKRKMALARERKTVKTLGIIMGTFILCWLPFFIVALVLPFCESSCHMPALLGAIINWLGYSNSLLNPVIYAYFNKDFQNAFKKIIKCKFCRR

[2] = biological target: T2, 5-hydroxytryptamine receptor 1A (Homo sapiens) (UniProt P08908); assay: Percent inhibition of vasoactive intestinal polypeptide-induced (VIP-induced) cAMP formation in GH4ZD10 cells expressing 5-HT1A receptor at 50 uM relative to 5-HT; format: functional, cell-based
T2 sequence (whole entry): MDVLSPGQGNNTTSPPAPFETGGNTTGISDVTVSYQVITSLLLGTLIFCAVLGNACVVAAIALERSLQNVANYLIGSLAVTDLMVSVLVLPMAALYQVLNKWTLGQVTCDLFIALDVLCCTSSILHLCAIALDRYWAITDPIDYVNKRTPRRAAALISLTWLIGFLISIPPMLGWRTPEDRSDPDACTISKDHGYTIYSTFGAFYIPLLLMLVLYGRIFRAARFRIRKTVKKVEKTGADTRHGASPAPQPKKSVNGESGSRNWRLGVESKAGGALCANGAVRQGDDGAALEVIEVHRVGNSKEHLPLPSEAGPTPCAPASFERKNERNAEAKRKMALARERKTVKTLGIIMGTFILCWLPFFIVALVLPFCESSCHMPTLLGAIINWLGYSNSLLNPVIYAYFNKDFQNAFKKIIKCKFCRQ

[3] = biological target: 5-hydroxytryptamine receptor 2A (Rattus norvegicus, UniProt P14842); assay: In vitro binding affinity at 5-hydroxytryptamine 2A receptor by displacement of [3H]ketanserin from rat cortex
Sequence of 5-hydroxytryptamine receptor 2A (P14842 whole entry): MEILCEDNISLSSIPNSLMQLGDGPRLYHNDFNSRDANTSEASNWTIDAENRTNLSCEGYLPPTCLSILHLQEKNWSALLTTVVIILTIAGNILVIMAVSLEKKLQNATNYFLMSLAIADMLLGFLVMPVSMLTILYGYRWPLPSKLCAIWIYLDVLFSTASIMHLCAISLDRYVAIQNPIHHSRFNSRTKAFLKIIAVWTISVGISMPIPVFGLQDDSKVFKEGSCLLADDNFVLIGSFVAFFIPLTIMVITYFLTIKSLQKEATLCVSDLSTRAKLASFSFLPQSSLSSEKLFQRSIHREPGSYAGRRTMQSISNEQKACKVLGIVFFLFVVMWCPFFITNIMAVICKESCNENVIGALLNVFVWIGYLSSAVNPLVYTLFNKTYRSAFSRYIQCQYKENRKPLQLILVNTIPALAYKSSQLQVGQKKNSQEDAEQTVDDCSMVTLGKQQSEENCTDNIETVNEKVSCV

[4] = biological target: T1, 5-hydroxytryptamine receptor 1A; assay: In vitro binding affinity at 5-HT1A receptor by measuring its ability to displace [3H]-8-OH-DPAT from 5-hydroxytryptamine 1A receptor in rat hippocampal membranes+cortex; format: cell membranes, Hippocampus
D(2) dopamine receptor [5] = biological target: T3, D(2) dopamine receptor (Homo sapiens, UniProt P14416); assay: In vitro binding affinity at human cloned Dopamine receptor D2A measured by ability to displace [3H]raclopride from D2A receptor expressed in mouse fibroblast (LtK-) cells; format: cell-based
T3 sequence (P14416 whole entry): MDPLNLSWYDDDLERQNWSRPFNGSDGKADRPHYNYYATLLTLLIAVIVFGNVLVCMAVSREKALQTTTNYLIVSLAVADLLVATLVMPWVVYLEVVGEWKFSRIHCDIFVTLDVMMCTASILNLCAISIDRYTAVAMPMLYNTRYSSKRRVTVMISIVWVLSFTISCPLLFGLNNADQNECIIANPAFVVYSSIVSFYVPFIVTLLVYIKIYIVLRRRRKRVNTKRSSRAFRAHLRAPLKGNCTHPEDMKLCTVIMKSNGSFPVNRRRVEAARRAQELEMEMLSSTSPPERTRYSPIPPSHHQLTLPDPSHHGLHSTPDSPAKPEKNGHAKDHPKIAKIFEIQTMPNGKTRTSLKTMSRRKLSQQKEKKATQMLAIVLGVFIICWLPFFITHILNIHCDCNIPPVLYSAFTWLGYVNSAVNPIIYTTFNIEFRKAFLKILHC

D(1A) dopamine receptor = D(1A) dopamine receptor (Rattus norvegicus, UniProt P18901); assay: In vitro binding affinity at D1 receptor by measuring its ability to displace [3H]SCH-23390 from Dopamine receptor D1 in rat striatum
Sequence of D(1A) dopamine receptor (P18901 whole entry): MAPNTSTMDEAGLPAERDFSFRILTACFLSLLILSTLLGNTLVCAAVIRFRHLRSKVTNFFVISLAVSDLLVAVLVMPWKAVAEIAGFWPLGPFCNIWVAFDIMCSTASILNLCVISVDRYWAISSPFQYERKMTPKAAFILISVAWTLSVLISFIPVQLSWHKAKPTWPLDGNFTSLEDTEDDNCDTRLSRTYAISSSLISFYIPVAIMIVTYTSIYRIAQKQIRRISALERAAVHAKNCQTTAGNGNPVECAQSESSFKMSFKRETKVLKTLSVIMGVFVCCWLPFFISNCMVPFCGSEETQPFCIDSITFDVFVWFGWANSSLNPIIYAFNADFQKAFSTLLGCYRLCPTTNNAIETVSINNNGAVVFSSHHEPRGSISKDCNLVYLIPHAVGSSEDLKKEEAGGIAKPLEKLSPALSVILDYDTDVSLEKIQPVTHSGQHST

[6] = biological target: T4, 5-hydroxytryptamine receptor 1A (Rattus norvegicus) (UniProt P19327); assay: Percent of maximum response by 5-HT when tested for inhibition of vasoactive intestinal polypeptide-induced (VIP-induced) cAMP formation assessed in GH4ZD10 cells at 50 uM concentration; No effect; format: functional, cell-based
T4 sequence (whole entry): T1 sequence (P19327 whole entry)

[7] = biological target: T4, 5-hydroxytryptamine receptor 1A (Rattus norvegicus); assay: Percent of maximum response by 5-HT when tested for inhibition of vasoactive intestinal polypeptide-induced (VIP-induced) cAMP formation assessed in GH4ZD10 cells at 10 uM concentration; format: functional, cell-based
[8] = biological target: T1, 5-hydroxytryptamine receptor 1A; assay: In vitro binding affinity at 5-HT1A receptor by measuring its ability to displace [3H]8-OH-DPAT from 5-hydroxytryptamine 1A receptor in rat hippocampal membranes + cortex; format: cell membranes, Hippocampus
D(2) dopamine receptor [9] = biological target: T3, D(2) dopamine receptor; assay: In vitro binding affinity at human cloned Dopamine receptor D2A by measuring its ability to displace [3H]raclopride from D2A receptor expressed in mouse fibroblast (LtK-) cells; format: cell-based

SMILES	Ki [1] [nM]	Efficacy [2] [%]	Ki [3] [nM]	Ki (D(2) dopamine receptor [5]) [nM]	Ki (D(1A) dopamine receptor) [nM]	other results
CCCN(C(C)C)[C@H]1COc2cccc(C(=O)OC)c2C1	0.32	128	–	–	–	–
CCCN(CC(C)C)[C@H]1COc2cccc(C(=O)NC)c2C1	2.37	96	> 50000	–	–	–
CCCN(CC(C)(C)C)[C@H]1COc2cccc(C(=O)NC)c2C1	31	88	–	–	–	–
CCCN(C1CCCC1)[C@@H]1COc2cccc(C(=O)NC)c2C1	18.5	110	–	–	–	–
CCCN(CCCCN1C(=O)CC2(CCCC2)CC1=O)[C@@H]1COc2cccc(C(=O)NC)c2C1	< 0.3	103	–	–	–	–
CCCN(C(C)C)[C@H]1COc2cccc(OC)c2C1	–	–	–	–	–	Ki [4]: 3.1 nM
NC(=O)c1cccc2c1C[C@@H](N)CO2	–	–	> 1000	> 1000	> 1000	Efficacy [6]: inactive
CCCN(C(C)C)[C@H]1COc2cccc(C(N)=O)c2C1	0.48	75	> 1000	> 50000	> 1000	–
CNC(=O)c1cccc2c1C[C@@H](NCCCCN1C(=O)CC3(CCCC3)CC1=O)CO2	525	61	–	–	–	–
CCCN(C(C)C)[C@H]1COc2cccc(C(=O)NC(C)C)c2C1 [EBALZOTAN]	7.77	74	> 10000	> 50000	> 50000	–
CCCN[C@H]1COc2cccc(C(N)=O)c2C1	98.4	42	> 1000	> 1000	> 1000	–
CCCN(C(C)C)[C@@H]1COc2cccc(OC)c2C1	–	–	–	–	–	Ki [4]: 134 nM
CCCN(CC(C)(C)C)[C@@H]1COc2cccc(C(=O)NC)c2C1	3.96	–	–	–	–	Efficacy [7]: 91%
CCCN(C(C)C)[C@H]1COc2cccc(C(C)=O)c2C1	0.3	–	–	–	–	–
CCCN(C1CCCC1)[C@H]1COc2cccc(C(N)=O)c2C1	< 0.3	–	> 1000	> 1000	> 4000	Efficacy [7]: 80%
CCCN(CCC)[C@@H]1COc2cccc(C(=O)NC(C)C)c2C1	–	95	–	–	–	Ki [8]: 64 nM
CCCN(C(C)C)[C@H]1COc2cccc(C(=O)OC(C)C)c2C1	–	–	–	–	–	Ki [4]: 18 nM
CCCN(C1CCCC1)[C@H]1COc2cccc(C(=O)OC)c2C1	0.41	–	–	–	–	–
CCCN(C1CCCC1)[C@H]1COc2cccc(C(=O)NC)c2C1	< 0.3	70	–	–	–	–
CCN(C(C)C)[C@H]1COc2cccc(C(=O)NC(C)C)c2C1	200	–	> 1000	> 1000	> 1000	Efficacy [7]: 34%
CNC(=O)c1cccc2c1C[C@H](N(CCCCN1C(=O)CC3(CCCC3)CC1=O)CC(C)C)CO2	2.48	123	–	–	–	–
CC(C)N[C@H]1COc2cccc(C(N)=O)c2C1	397	20	> 1000	> 1000	> 1000	–
CNC(=O)c1cccc2c1C[C@H](NCCCCN1C(=O)CC3(CCCC3)CC1=O)CO2	24.3	82	–	–	–	–
CCCN(C(C)C)[C@@H]1COc2cccc(C(=O)NC(C)C)c2C1	–	–	> 10000	> 50000	> 50000	Efficacy [6]: inactive
CCCN(CCCCN1C(=O)CC2(CCCC2)CC1=O)[C@H]1COc2cccc(C(=O)NC)c2C1	0.34	62	–	–	–	–
CCCN(CCC)[C@H]1COc2cccc(C(=O)NC(C)C)c2C1	14	58	> 1000	> 1000	> 1000	–
CCCN(C(C)C)[C@@H]1COc2cccc(C(C)=O)c2C1	11.9	128	–	–	–	Ki (D(2) dopamine receptor [9]): 30100 nM
CC(C)NC(=O)c1cccc2c1C[C@@H](NC(C)C)CO2	4300	–	> 10000	> 1000	> 1000	Efficacy [6]: inactive
